ChEMBL document CHEMBL3045481, “Insecticide-induced resurgence of the whitebacked planthopper Sogatella furcifera (Horvath) (Hemiptera: Delphacidae) on rice varieties with different levels of resistance” (Crop Prot, 2011)

Tests used:
Oryza sativa [1] = experiment: Effect on total protein level in Sogatella furcifera-resistanct Oryza sativa (rice) plant PR116 leaf sheath measured per gram of dry weight at 0.030% concentration (reference value: 7.06 mg/g fresh wt); assay type: ADME, organism-based; conditions: in vivo
Oryza sativa [2] = experiment: Effect on reducing sugar level in Sogatella furcifera-resistanct Oryza sativa (rice) plant PR116 leaf sheath measured per gram of dry weight at 0.030% concentration (reference value: 7.50 mg/g dry wt); assay type: ADME, organism-based; conditions: in vivo
Sogatella furcifera [3] = experiment: Insecticidal activity against Sogatella furcifera on insect-sensitive rice plant ARC6248 assessed as nymphal duration at 0.030% concentration (reference value: 14.48 days); assay type: functional
Oryza sativa [4] = experiment: Effect on total phenols level in Sogatella furcifera-resistanct Oryza sativa (rice) plant PR116 leaf sheath measured per gram of dry weight at 0.030% concentration (reference value: 5.75 mg/g dry wt); assay type: ADME, organism-based; conditions: in vivo
Oryza sativa [5] = experiment: Effect on total sugar level in Sogatella furcifera-resistanct Oryza sativa (rice) plant PR116 leaf sheath measured per gram of dry weight at 0.030% concentration (reference value: 30.27 mg/g dry wt); assay type: ADME, organism-based; conditions: in vivo
Oryza sativa [6] = experiment: Effect on total amino acids level in Sogatella furcifera-resistanct Oryza sativa (rice) plant PR116 leaf sheath measured per gram of dry weight at 0.030% concentration (reference value: 2.58 mg/g […]); assay type: ADME, organism-based; conditions: in vivo
Sogatella furcifera [7] = experiment: Insecticidal activity against Sogatella furcifera on insect-sensitive rice plant ARC6248 assessed as growth index at 0.030% concentration (reference value: 2.38%); assay type: functional
Oryza sativa [8] = experiment: Effect on total phenols level in Sogatella furcifera-resistanct Oryza sativa (rice) plant PR116 leaf blade measured per gram of dry weight at 0.030% concentration (reference value: 8.08 mg/g dry wt); assay type: ADME, organism-based; conditions: in vivo
Oryza sativa [9] = experiment: Effect on total protein level in Sogatella furcifera-resistanct Oryza sativa (rice) plant PR116 leaf blade measured per gram of dry weight at 0.030% concentration (reference value: 21.67 mg/g fresh wt); assay type: ADME, organism-based; conditions: in vivo
Oryza sativa [10] = experiment: Effect on total sugar level in Sogatella furcifera-resistanct Oryza sativa (rice) plant PR116 leaf blade measured per gram of dry weight at 0.030% concentration (reference value: 36.16 mg/g dry wt); assay type: ADME, organism-based; conditions: in vivo
Oryza sativa [11] = experiment: Effect on total amino acids level in Sogatella furcifera-sensitive Oryza sativa (rice) plant ARC6248 leaf blade measured per gram of dry weight at 0.030% concentration (reference value: 3.54 mg/g fresh wt); assay type: ADME, organism-based; conditions: in vivo
Oryza sativa [12] = experiment: Effect on total sugar level in Sogatella furcifera-sensitive Oryza sativa (rice) plant ARC6248 leaf blade measured per gram of dry weight at 0.030% concentration (reference value: 34.05 mg/g dry wt); assay type: ADME, organism-based; conditions: in vivo
Oryza sativa [13] = experiment: Effect on reducing sugar level in Sogatella furcifera-sensitive Oryza sativa (rice) plant ARC6248 leaf blade measured per gram of dry weight at 0.030% concentration (reference value: 8.37 mg/g dry wt); assay type: ADME, organism-based; conditions: in vivo
Sogatella furcifera [14] = experiment: Insecticidal activity against Sogatella furcifera on insect-resistanct rice plant PR116 assessed as nymphal survival at 0.030% concentration (reference value: 70.28%); assay type: functional
Oryza sativa [15] = experiment: Effect on total amino acids level in Sogatella furcifera-resistanct Oryza sativa (rice) plant PR116 leaf blade measured per gram of dry weight at 0.030% concentration (reference value: 3.91 mg/g […]); assay type: ADME, organism-based; conditions: in vivo
Sogatella furcifera [16] = experiment: Insecticidal activity against Sogatella furcifera on insect-resistanct rice plant PR116 assessed as nymphal duration at 0.030% concentration (reference value: 11.75 days); assay type: functional
Oryza sativa [17] = experiment: Effect on total phenols level in Sogatella furcifera-sensitive Oryza sativa (rice) plant ARC6248 leaf blade measured per gram of dry weight at 0.030% concentration (reference value: 17.08 mg/g dry wt); assay type: ADME, organism-based; conditions: in vivo
Oryza sativa [18] = experiment: Effect on total protein level in Sogatella furcifera-sensitive Oryza sativa (rice) plant ARC6248 leaf blade measured per gram of dry weight at 0.030% concentration (reference value: 17.67 mg/g […]); assay type: ADME, organism-based; conditions: in vivo
Oryza sativa [19] = experiment: Effect on total protein level in Sogatella furcifera-sensitive Oryza sativa (rice) plant ARC6248 leaf sheath measured per gram of dry weight at 0.030% concentration (reference value: 6.11 mg/g […]); assay type: ADME, organism-based; conditions: in vivo
Oryza sativa [20] = experiment: Effect on total amino acids level in Sogatella furcifera-sensitive Oryza sativa (rice) plant ARC6248 leaf sheath measured per gram of dry weight at 0.030% concentration (reference value: 2.11 mg/g fresh wt); assay type: ADME, organism-based; conditions: in vivo
Oryza sativa [21] = experiment: Effect on reducing sugar level in Sogatella furcifera-resistanct Oryza sativa (rice) plant PR116 leaf blade measured per gram of dry weight at 0.030% concentration (reference value: 9.35 mg/g dry wt); assay type: ADME, organism-based; conditions: in vivo
Sogatella furcifera [22] = experiment: Insecticidal activity against Sogatella furcifera on insect-resistanct rice plant PR116 assessed as resurgence ratio at 0.030% concentration; assay type: functional
Sogatella furcifera [23] = experiment: Insecticidal activity against Sogatella furcifera on insect-resistanct rice plant PR116 assessed as growth index at 0.030% concentration (reference value: 6.02%); assay type: functional
Oryza sativa [24] = experiment: Effect on total sugar level in Sogatella furcifera-sensitive Oryza sativa (rice) plant ARC6248 leaf sheath measured per gram of dry weight at 0.030% concentration (reference value: 25.98 mg/g dry wt); assay type: ADME, organism-based; conditions: in vivo
Sogatella furcifera [25] = experiment: Insecticidal activity against Sogatella furcifera on insect-sensitive rice plant ARC6248 assessed as nymphal survival at 0.030% concentration (reference value: 34.17%); assay type: functional
Oryza sativa [26] = experiment: Effect on reducing sugar level in Sogatella furcifera-sensitive Oryza sativa (rice) plant ARC6248 leaf sheath measured per gram of dry weight at 0.030% concentration (reference value: 6.41 mg/g dry wt); assay type: ADME, organism-based; conditions: in vivo
Sogatella furcifera [27] = experiment: Insecticidal activity against Sogatella furcifera on insect-sensitive rice plant ARC6248 assessed as resurgence ratio at 0.030% concentration; assay type: functional
Oryza sativa [28] = experiment: Effect on total phenols level in Sogatella furcifera-sensitive Oryza sativa (rice) plant ARC6248 leaf sheath measured per gram of dry weight at 0.030% concentration (reference value: 12.75 mg/g dry wt); assay type: ADME, organism-based; conditions: in vivo

COP(=S)(OC)Oc1ccc([N+](=O)[O-])cc1 [METHYL PARATHIONE]
Activity (Oryza sativa [1]): 8.67 mg
Activity (Oryza sativa [2]): 11.63 mg
Time (Sogatella furcifera [3]): 14.35 days
Activity (Oryza sativa [4]): 5.58 mg
Activity (Oryza sativa [5]): 33.48 mg
Activity (Oryza sativa [6]): 3.64 mg
growth inhibition (GI) (Sogatella furcifera [7]): 2.87%
Activity (Oryza sativa [8]): 7.5 mg
Activity (Oryza sativa [9]): 23.33 mg
Activity (Oryza sativa [10]): 38.3 mg
Activity (Oryza sativa [11]): 4.04 mg
Activity (Oryza sativa [12]): 39.37 mg
Activity (Oryza sativa [13]): 10.54 mg
Survival (Sogatella furcifera [14]): 77.78%
Activity (Oryza sativa [15]): 4.53 mg
Time (Sogatella furcifera [16]): 11.57 days
Activity (Oryza sativa [17]): 16.08 mg
Activity (Oryza sativa [18]): 21.17 mg
Activity (Oryza sativa [19]): 8.33 mg
Activity (Oryza sativa [20]): 2.86 mg
Activity (Oryza sativa [21]): 14.89 mg
Ratio (Sogatella furcifera [22]): 1.69
growth inhibition (GI) (Sogatella furcifera [23]): 6.76%
Activity (Oryza sativa [24]): 33.21 mg
Survival (Sogatella furcifera [25]): 40.83%
Activity (Oryza sativa [26]): 9.89 mg
Ratio (Sogatella furcifera [27]): 1.26
Activity (Oryza sativa [28]): 11.08 mg
